According to US12329753B2, “Phosphodiesterase inhibitor treatment” (Cyrano Therapeutics, Inc., priority 2008, dated 2025):

Legend:
[1] = tested on: patients with hyposmia; test: Pilot study of intranasal theophylline, subjective taste and smell response; type: in vivo, human
Description: Ten patients with hyposmia were selected from among 400 patients with hyposmia to participate in a pilot study to determine safety and efficacy of intranasal theophylline for the treatment of hyposmia. […] Selection for inclusion in the intranasal study was based upon several criteria. 1) non-response to oral theophylline; 2) severe side effects with oral theophylline that prevented reaching a dose of sufficient strength to restore smell function; and/or 3) preference for intranasal medication over oral medication.
Subjective responses to treatment were obtained independent of any interaction with the clinical staff by using a scale of 0-100 to measure response of taste function and smell function to treatment with 0 indicating no response, 100 indicating return to normal function and intermediate numbers indicating an intermediate response.
The patients inserted a plastic syringe containing 0.4 ml of fluid (20 μg theophylline) into each naris once a day. […] The drug dose was delivered through a plastic nipple which fitted snugly onto the filled syringe which was attached directly to the nipple. One nipple was supplied for each set of two syringes in each application kit. The patient fitted the nipple on one syringe, placed the nipple securely into the lower naris and injected the contents of the syringe directly into the lower vault of one naris accompanied by a modest inhalation. […]

[2] = tested on: cAMP; test: Parotid saliva cAMP, 96 plate spectrophotometric assay; type: in vivo, human
Description: Parotid saliva was collected from each patient by application of a Lashley cup over Stensen's duct with lingual stimulation by placement of concentrated lemon juice. Saliva was collected in plastic tubes and stored at −20° C. until assayed. cAMP and cGMP were measured in saliva by a sensitive 96 plate spectrophotometric assay (R&D Systems, Minneapolis, MN).
All patients were placed in a fixed design open label clinical trial with treatment with oral theophylline. Treatment consisted of fixed treatment periods of two-eight months with sequential doses of the drug at 200 mg, 400 mg and 600 mg. At termination of each of these intervals, patients returned to study site for reevaluation. At the end of each interval subjective responses to treatment were measured with a modification of the 0-100 scale previously used (vs). […] Theophylline was assayed by a fluorescence polarization assay (Abbott, Chicago, IL), as previously described.
Data for the cyclic nucleotides from these 31 patients was not analyzed until the entire study of the 312 patients in Example 1 was assembled and analyzed in its entirety. […] The two patient groups were also analyzed post hoc with respect to type of smell loss and etiology of smell loss.

[3] = tested on: asthmatic patients; test: sGaw after inhaled dry powder in asthmatic patients, single blind study (Examples 5, 6); type: in vivo, human; conditions: dry powder 2 mg inhaled
Description: (§1) To test this theory, asthmatic patients are enrolled in a dose escalating single blind study. On arrival to the clinic, subjects are allowed to rest for 20 minutes before baseline measurements of FEV1 (six recordings) and sGaw (five recordings) are made. Subjects receive a dry powder dispenser loaded with a dose of 2 mg theophylline or a dry powder carrier. […] After each inhalation, measurements of sGaw are made at 1, 3, 5, 10, 15, 20, 25, and 30 minutes.
On completion of the last recording, subjects inhale a 200 μg dose of salbutamol from a metered inhaler and a further measurement of sGaw is made after 15 minutes. Subjects are also monitored for coughing and are questioned about the taste of the drug.
as §1, with “Asthmatic patients” for “To test this theory, asthmatic patients”, “of 1” for “of 2”, “mg IBMX formulated as a dry powder” for “mg theophylline”
On completion of the last recording, subjects inhale a 200 μg dose of salbutamol from a metered inhaler and a further measurement of sGaw mad after 15 minutes. Subjects are also be monitored for coughing and are questioned about the taste of the drug.

[4] = asthma therapy; cited from earlier work
[5] = Blood serum theophylline, fluorescence polarization assay (Example 1); type: in vivo, human
Description: Patients returned for reevaluation after two to four months of treatment. Measurements of blood serum theophylline were measured by a fluorescence polarization assay (Abbott, Chicago, IL). At this time, subjective changes in smell function were measured independently (compared to patient's memory of previous normal smell function monitored by use of the patients' daily measurements) using the scale from −100-0-+100 previously described (vs). After independently recording their subjective responses, smell function was measured for all four odors with DT, RT, ME and H determined without recourse to prior measurements.

Cn1c(=O)c2[nH]cnc2n(C)c1=O [theophylline]
subjective improvement in both taste and smell function over prior results with oral theophylline ([1]; intranasal 20 μg per naris once a day, 4 weeks, six of eight patients): 10-20% | further loss of smell while in the study ([1]; intranasal 20 μg per naris, after stopping oral theophylline): No patient exhibited a further of loss of smell | parotid saliva cAMP ([2]; oral 400 mg, patients with improved smell function (12), mean ± SEM): 1.22 ± 0.33 pmol/mL | change of saliva cAMP ([2]; oral 200, 400, 600 mg, unimproved patients): essentially no change | increase in sGaw versus 200 μg salbutamol [3]: comparable to that produced by salbutamol | sGaw above baseline measurement ([3]; after 30 minutes): 20% | therapeutic range for plasma concentrations [4]: 10 to 20 mg/L | mean serum theophylline ([5]; oral 200 mg daily): 4.0±0.2 | mean serum theophylline ([5]; oral 400 mg daily): 7.4±0.4
